Data on nine molecules can be found in ChEMBL document CHEMBL1122924 (J Med Chem, 1985).

Data set [1] can be described thus: physchem. The following applies: octanol/0.05 M phosphate buffer, pH 7.4.
Description: Compound was evaluated for apparent partition coefficient (log P) between octanol and 0.05 M phosphate buffer solution of pH 7.40
The nature of data set [2]: physchem. Conditions: pH 7.4.

In the case of `CC[C@H](C(=O)OCc1ccccc1C)[C@H](CO)Cc1cncn1C`, the logD (in general, lipophilicity at a set pH, counting ionised and neutral species) in data set [1] was determined as 2.27. Besides, in data set [2], the half-life (as a rule, the time in which the quantity being followed falls by half) was 2.32 h.

Molecule `CCCCOC(=O)[C@@H](CC)[C@H](CO)Cc1cncn1C` returned a logD in data set [1] of 1.58. The half-life in data set [2] turned out to be 13.7 h.

`CC[C@H](C(=O)OCc1ccccc1)[C@H](CO)Cc1cncn1C` came in with a logD in data set [1] of 1.82. For the same molecule, the half-life in data set [2] was determined as 0.833 h.

In data set [1], `CC[C@H](C(=O)OC(C)c1ccccc1)[C@H](CO)Cc1cncn1C` (stereo partly drawn) returned a logD of 2.08. Further, in data set [2], the half-life was 7.92 h.

`CC[C@H](C(=O)OCCc1ccccc1)[C@H](CO)Cc1cncn1C` yielded a logD in data set [1] of 2.16. For the same molecule, the half-life in data set [2] came out at 3.78 h.

Molecule `CC[C@H](C(=O)OCc1ccc(Cl)cc1)[C@H](CO)Cc1cncn1C` yielded a logD in data set [1] of 2.54. The molecule also returned a half-life in data set [2] of 0.5 h.

Take `CCOC(=O)[C@@H](CC)[C@H](CO)Cc1cncn1C`: the logD in data set [1] turned out to be 0.58. Besides, the half-life in data set [2] came out at 8.5 h.

Regarding `CCCCCCOC(=O)[C@@H](CC)[C@H](CO)Cc1cncn1C`, the logD in data set [1] is 2.56. The molecule also registered a half-life in data set [2] of 18.4 h.

Turning to `CC[C@H](C(=O)OCc1ccc(C)cc1)[C@H](CO)Cc1cncn1C`, in data set [1], the logD stood at 2.31. In addition, the half-life in data set [2] stood at 1.28 h.
